Activity calls are given as the source filed them. The calls are words filed in the database; no cut-off is given here.
Key:
[1] = molecular target: T1, Protein cereblon/Tyrosine-protein phosphatase non-receptor type 1 (Homo sapiens, UniProt P18031+Q96SW2); experiment: PROTAC activity at PTP1B/CRBN in insulin treated human HepG2 cells assessed as protein degradation at 5 nM incubated for 48 hrs by Western blot analysis relative to control; type: cell-based
Target sequence in this assay (P18031 whole entry, looked up): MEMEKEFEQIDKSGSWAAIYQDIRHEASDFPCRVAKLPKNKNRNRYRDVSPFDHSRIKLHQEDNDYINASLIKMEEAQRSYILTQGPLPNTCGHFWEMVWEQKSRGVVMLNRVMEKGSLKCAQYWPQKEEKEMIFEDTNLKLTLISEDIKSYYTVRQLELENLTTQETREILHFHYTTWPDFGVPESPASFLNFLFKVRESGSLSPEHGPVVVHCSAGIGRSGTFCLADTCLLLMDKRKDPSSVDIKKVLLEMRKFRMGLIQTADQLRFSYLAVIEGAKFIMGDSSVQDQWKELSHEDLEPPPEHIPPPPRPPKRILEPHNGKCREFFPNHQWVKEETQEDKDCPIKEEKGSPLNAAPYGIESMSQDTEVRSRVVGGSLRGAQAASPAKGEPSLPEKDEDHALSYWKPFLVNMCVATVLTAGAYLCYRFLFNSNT
Target sequence in this assay (Q96SW2 whole entry, looked up): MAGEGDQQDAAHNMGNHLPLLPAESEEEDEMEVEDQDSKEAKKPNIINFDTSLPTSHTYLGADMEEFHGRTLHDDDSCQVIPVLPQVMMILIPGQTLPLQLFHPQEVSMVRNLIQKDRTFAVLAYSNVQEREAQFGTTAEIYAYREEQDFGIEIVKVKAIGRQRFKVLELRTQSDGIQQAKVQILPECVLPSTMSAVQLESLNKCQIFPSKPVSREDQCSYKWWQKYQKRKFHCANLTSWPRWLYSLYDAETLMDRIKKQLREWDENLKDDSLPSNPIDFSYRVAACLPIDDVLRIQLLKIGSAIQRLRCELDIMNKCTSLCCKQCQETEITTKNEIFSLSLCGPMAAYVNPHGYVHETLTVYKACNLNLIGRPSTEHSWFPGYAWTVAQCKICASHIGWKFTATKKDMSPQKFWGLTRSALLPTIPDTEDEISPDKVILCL

[2] = molecular target: T1, Protein cereblon/Tyrosine-protein phosphatase non-receptor type 1; experiment: PROTAC activity at PTP1B/CRBN in insulin treated human HepG2 cells assessed as protein degradation at 50 nM incubated for 48 hrs by Western blot analysis relative to control; type: cell-based
Target sequence in this assay (P18031 whole entry, looked up): as the sequence (P18031 whole entry, looked up) above
Target sequence in this assay (Q96SW2 whole entry, looked up): as the sequence (Q96SW2 whole entry, looked up) above

[3] = molecular target: T1, Protein cereblon/Tyrosine-protein phosphatase non-receptor type 1; experiment: PROTAC activity at PTP1B/CRBN in insulin treated human HepG2 cells assessed as protein degradation at 500 nM incubated for 48 hrs by Western blot analysis relative to control; type: cell-based
Target sequence in this assay (P18031 whole entry, looked up): as the sequence (P18031 whole entry, looked up) above
Target sequence in this assay (Q96SW2 whole entry, looked up): as the sequence (Q96SW2 whole entry, looked up) above

[4] = molecular target: T1, Protein cereblon/Tyrosine-protein phosphatase non-receptor type 1; experiment: PROTAC activity at PTP1B/CRBN in insulin treated human HepG2 cells assessed as protein degradation at 5000 nM incubated for 48 hrs by Western blot analysis relative to control; type: cell-based
Target sequence in this assay (P18031 whole entry, looked up): as the sequence (P18031 whole entry, looked up) above
Target sequence in this assay (Q96SW2 whole entry, looked up): as the sequence (Q96SW2 whole entry, looked up) above

[5] = molecular target: T1, Protein cereblon/Tyrosine-protein phosphatase non-receptor type 1; experiment: PROTAC activity at PTP1B/CRBN in insulin treated human HepG2 cells assessed as protein degradation incubated for 48 hrs by Western blot analysis; type: cell-based
[6] = molecular target: T1, Protein cereblon/Tyrosine-protein phosphatase non-receptor type 1; experiment: PROTAC activity at PTP1B/CRBN in insulin treated human HepG2 cells assessed as protein degradation incubated for 72 hrs by Western blot analysis; type: cell-based
[7] = molecular target: T1, Protein cereblon/Tyrosine-protein phosphatase non-receptor type 1; experiment: PROTAC activity at PTP1B/CRBN in insulin treated human HepG2 cells assessed as protein degradation at 1 nM incubated for 48 hrs by Western blot analysis relative to control; type: cell-based
Target sequence in this assay (P18031 whole entry, looked up): as the sequence (P18031 whole entry, looked up) above
Target sequence in this assay (Q96SW2 whole entry, looked up): as the sequence (Q96SW2 whole entry, looked up) above

[8] = molecular target: T1, Protein cereblon/Tyrosine-protein phosphatase non-receptor type 1; experiment: PROTAC activity at PTP1B/CRBN in insulin treated human HepG2 cells assessed as protein degradation at 1 nM incubated for 72 hrs by Western blot analysis relative to control; type: cell-based
Target sequence in this assay (P18031 whole entry, looked up): as the sequence (P18031 whole entry, looked up) above
Target sequence in this assay (Q96SW2 whole entry, looked up): as the sequence (Q96SW2 whole entry, looked up) above

[9] = molecular target: T1, Protein cereblon/Tyrosine-protein phosphatase non-receptor type 1; experiment: PROTAC activity at PTP1B/CRBN in insulin treated human HepG2 cells assessed as protein degradation at 5 nM incubated for 72 hrs by Western blot analysis relative to control; type: cell-based
[10] = molecular target: T1, Protein cereblon/Tyrosine-protein phosphatase non-receptor type 1; experiment: PROTAC activity at PTP1B/CRBN in insulin treated human HepG2 cells assessed as protein degradation at 25 nM incubated for 48 hrs by Western blot analysis relative to control; type: cell-based
[11] = molecular target: T1, Protein cereblon/Tyrosine-protein phosphatase non-receptor type 1; experiment: PROTAC activity at PTP1B/CRBN in insulin treated human HepG2 cells assessed as protein degradation at 25 nM incubated for 72 hrs by Western blot analysis relative to control; type: cell-based
[12] = molecular target: T1, Protein cereblon/Tyrosine-protein phosphatase non-receptor type 1; experiment: PROTAC activity at PTP1B/CRBN in insulin treated human HepG2 cells assessed as protein degradation at 125 nM incubated for 48 hrs by Western blot analysis relative to control; type: cell-based
[13] = molecular target: T1, Protein cereblon/Tyrosine-protein phosphatase non-receptor type 1; experiment: PROTAC activity at PTP1B/CRBN in insulin treated human HepG2 cells assessed as protein degradation at 125 nM incubated for 72 hrs by Western blot analysis relative to control; type: cell-based
[14] = molecular target: T1, Protein cereblon/Tyrosine-protein phosphatase non-receptor type 1; experiment: PROTAC activity at PTP1B/CRBN in insulin treated human HepG2 cells assessed as protein degradation at 625 nM incubated for 48 hrs by Western blot analysis relative to control; type: cell-based
[15] = molecular target: T1, Protein cereblon/Tyrosine-protein phosphatase non-receptor type 1; experiment: PROTAC activity at PTP1B/CRBN in insulin treated human HepG2 cells assessed as protein degradation at 625 nM incubated for 72 hrs by Western blot analysis relative to control; type: cell-based
[16] = molecular target: T1, Protein cereblon/Tyrosine-protein phosphatase non-receptor type 1; experiment: PROTAC activity at PTP1B/CRBN in insulin treated human HepG2 cells assessed as protein degradation at 1250 nM incubated for 48 hrs by Western blot analysis relative to control; type: cell-based
[17] = molecular target: T1, Protein cereblon/Tyrosine-protein phosphatase non-receptor type 1; experiment: PROTAC activity at PTP1B/CRBN in insulin treated human HepG2 cells assessed as protein degradation at 1250 nM incubated for 72 hrs by Western blot analysis relative to control; type: cell-based
[18] = system: Mus musculus; experiment: Anti-diabetic activity in KM mouse assessed as reduction in blood glucose measured for 0 to 120 mins at 40 mg/kg single dose by oral glucose tolerance test (oGTT) relative to control; type: functional; settings: time 0-120 min
[19] = molecular target: T1, Protein cereblon/Tyrosine-protein phosphatase non-receptor type 1; experiment: PROTAC activity at PTP1B/CRBN in insulin treated human HepG2 cells assessed as protein degradation half life at 500 nM by Western blot analysis; type: cell-based
[20] = molecular target: T1, Protein cereblon/Tyrosine-protein phosphatase non-receptor type 1; experiment: PROTAC activity at PTP1B/CRBN in insulin treated human HepG2 cells assessed as protein degradation at 250 to 500 nM incubated for 24 hrs by Western blot analysis; type: cell-based; settings: dose 250-500 nM
[21] = molecular target: Protein cereblon/Tyrosine-protein phosphatase non-receptor type 6 (Homo sapiens) (UniProt P29350+Q96SW2); experiment: PROTAC activity at SHP1/CRBN in insulin treated human HepG2 cells assessed as protein degradation at 250 to 500 nM incubated for 24 hrs by Western blot analysis; type: cell-based; settings: dose 250-500 nM
[22] = molecular target: Protein cereblon/Tyrosine-protein phosphatase non-receptor type 11 (Homo sapiens) (UniProt Q06124+Q96SW2); experiment: PROTAC activity at SHP2/CRBN in insulin treated human HepG2 cells assessed as protein degradation at 250 to 500 nM incubated for 24 hrs by Western blot analysis; type: cell-based; settings: dose 250-500 nM
[23] = molecular target: Protein cereblon/Tyrosine-protein phosphatase non-receptor type 22 (Homo sapiens) (UniProt Q9Y2R2+Q96SW2); experiment: PROTAC activity at LYP/CRBN in insulin treated human HepG2 cells assessed as protein degradation at 250 to 500 nM incubated for 24 hrs by Western blot analysis; type: cell-based; settings: dose 250-500 nM
[24] = molecular target: Protein cereblon/Receptor-type tyrosine-protein phosphatase C (Homo sapiens) (UniProt P08575+Q96SW2); experiment: PROTAC activity at CD45/CRBN in insulin treated human HepG2 cells assessed as protein degradation at 250 to 500 nM incubated for 24 hrs by Western blot analysis; type: cell-based; settings: dose 250-500 nM
[25] = molecular target: T1, Protein cereblon/Tyrosine-protein phosphatase non-receptor type 1; experiment: PROTAC activity at PTP1B/CRBN in insulin treated human HepG2 cells assessed as protein degradation at 100 nM incubated for 24 hrs in presence of pomalidomide by Western blot analysis; type: cell-based
[26] = molecular target: T1, Protein cereblon/Tyrosine-protein phosphatase non-receptor type 1; experiment: PROTAC activity at PTP1B/CRBN in insulin treated human HepG2 cells assessed as protein degradation at 100 nM incubated for 24 hrs in presence of […] by Western blot analysis; type: cell-based
[27] = molecular target: T1, Protein cereblon/Tyrosine-protein phosphatase non-receptor type 1; experiment: PROTAC activity at PTP1B/CRBN in insulin treated human HepG2 cells assessed as protein degradation at 100 nM incubated for 24 hrs in presence of MG-132 by Western blot analysis; type: cell-based
[28] = system: HepG2; experiment: Hypoglycemic activity in human HepG2 cells assessed as upregulation of IRS-1 expression at 250 to 500 nM incubated for 24 hrs by Western blot analysis; type: functional, cell-based; settings: dose 250-500 nM
[29] = system: HepG2; experiment: Hypoglycemic activity in human HepG2 cells assessed as upregulation of PI3K expression at 250 to 500 nM incubated for 24 hrs by Western blot analysis; type: functional, cell-based; settings: dose 250-500 nM
[30] = system: HepG2; experiment: Hypoglycemic activity in human HepG2 cells assessed as upregulation of Akt phosphorylation at 250 to 500 nM incubated for 24 hrs by Western blot analysis; type: functional, cell-based; settings: dose 250-500 nM
[31] = system: Mus musculus; experiment: Anti-diabetic activity in KM mouse assessed as reduction in area under the curve of blood glucose measured for 0 to 120 mins at 10 mg/kg single dose by oral glucose tolerance test (oGTT); type: functional; design: scale not given: the % may be the effect or the level left; settings: time 0-120 min
[32] = system: Mus musculus; experiment: Anti-diabetic activity in KM mouse assessed as reduction in area under the curve of blood glucose measured for 0 to 120 mins at 20 mg/kg single dose by oral glucose tolerance test (oGTT); type: functional; design: scale not given: the % may be the effect or the level left; settings: time 0-120 min
[33] = system: Mus musculus; experiment: Anti-diabetic activity in KM mouse assessed as reduction in area under the curve of blood glucose measured for 0 to 120 mins at 40 mg/kg single dose by oral glucose tolerance test (oGTT); type: functional; design: scale not given: the % may be the effect or the level left; settings: time 0-120 min

Chain of Protein cereblon/Tyrosine-protein phosphatase non-receptor type 22 (Homo sapiens) (Q96SW2 whole entry, looked up): as above
Chain of Protein cereblon/Tyrosine-protein phosphatase non-receptor type 22 (Homo sapiens) (Q9Y2R2 whole entry, looked up): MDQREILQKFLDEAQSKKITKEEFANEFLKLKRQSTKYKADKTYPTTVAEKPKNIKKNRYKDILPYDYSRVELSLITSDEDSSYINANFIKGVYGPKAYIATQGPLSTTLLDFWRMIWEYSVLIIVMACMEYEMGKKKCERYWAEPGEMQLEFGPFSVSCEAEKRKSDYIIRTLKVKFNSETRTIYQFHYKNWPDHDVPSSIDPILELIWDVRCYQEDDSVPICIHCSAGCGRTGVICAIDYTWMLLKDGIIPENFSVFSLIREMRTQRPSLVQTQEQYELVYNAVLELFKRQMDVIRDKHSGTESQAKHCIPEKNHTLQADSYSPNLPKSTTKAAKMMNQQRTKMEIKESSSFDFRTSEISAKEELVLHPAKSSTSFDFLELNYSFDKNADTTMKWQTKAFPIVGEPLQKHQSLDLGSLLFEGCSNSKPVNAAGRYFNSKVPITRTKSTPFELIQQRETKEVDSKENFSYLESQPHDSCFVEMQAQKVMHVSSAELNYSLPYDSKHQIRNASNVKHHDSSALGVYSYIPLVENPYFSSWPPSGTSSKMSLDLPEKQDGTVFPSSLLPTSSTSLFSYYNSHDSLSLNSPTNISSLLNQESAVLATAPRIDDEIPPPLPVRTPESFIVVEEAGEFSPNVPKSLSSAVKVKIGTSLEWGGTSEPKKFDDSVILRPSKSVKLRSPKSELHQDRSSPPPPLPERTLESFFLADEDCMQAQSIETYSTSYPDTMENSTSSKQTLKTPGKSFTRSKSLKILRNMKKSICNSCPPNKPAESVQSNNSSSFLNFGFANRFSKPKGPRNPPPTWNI
Chain of Protein cereblon/Receptor-type tyrosine-protein phosphatase C (Homo sapiens) (P08575 whole entry, looked up): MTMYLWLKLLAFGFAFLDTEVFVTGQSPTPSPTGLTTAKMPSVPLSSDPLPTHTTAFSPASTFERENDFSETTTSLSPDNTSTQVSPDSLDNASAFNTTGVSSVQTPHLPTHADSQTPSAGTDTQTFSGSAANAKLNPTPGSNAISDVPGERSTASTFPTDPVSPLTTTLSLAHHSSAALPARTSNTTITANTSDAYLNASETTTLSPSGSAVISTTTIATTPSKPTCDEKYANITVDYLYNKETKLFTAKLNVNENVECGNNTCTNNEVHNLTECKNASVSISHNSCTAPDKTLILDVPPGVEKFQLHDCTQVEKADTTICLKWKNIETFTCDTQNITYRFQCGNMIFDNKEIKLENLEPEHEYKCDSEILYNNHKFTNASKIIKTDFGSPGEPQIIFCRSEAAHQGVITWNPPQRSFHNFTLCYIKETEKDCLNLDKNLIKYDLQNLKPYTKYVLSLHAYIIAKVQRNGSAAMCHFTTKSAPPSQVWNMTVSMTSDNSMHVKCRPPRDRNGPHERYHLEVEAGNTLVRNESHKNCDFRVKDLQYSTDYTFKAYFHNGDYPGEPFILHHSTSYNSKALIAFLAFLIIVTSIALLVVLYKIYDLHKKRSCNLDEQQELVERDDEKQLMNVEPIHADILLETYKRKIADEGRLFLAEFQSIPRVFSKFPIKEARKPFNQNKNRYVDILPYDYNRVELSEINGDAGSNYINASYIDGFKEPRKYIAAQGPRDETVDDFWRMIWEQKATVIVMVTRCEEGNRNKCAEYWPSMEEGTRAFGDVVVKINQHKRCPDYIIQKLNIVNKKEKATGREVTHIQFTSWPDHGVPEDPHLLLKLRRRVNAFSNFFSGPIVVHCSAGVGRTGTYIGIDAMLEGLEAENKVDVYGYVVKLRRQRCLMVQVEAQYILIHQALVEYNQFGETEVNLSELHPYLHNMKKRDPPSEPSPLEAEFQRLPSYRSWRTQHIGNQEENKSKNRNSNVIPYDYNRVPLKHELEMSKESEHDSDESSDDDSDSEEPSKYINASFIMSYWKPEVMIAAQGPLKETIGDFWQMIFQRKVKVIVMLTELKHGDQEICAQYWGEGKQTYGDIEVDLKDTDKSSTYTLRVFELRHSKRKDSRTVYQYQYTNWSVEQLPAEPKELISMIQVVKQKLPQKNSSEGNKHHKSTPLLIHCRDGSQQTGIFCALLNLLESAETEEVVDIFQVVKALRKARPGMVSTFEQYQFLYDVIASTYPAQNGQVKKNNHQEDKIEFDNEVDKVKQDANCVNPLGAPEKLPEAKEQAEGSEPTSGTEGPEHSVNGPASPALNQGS
Chain of Protein cereblon/Receptor-type tyrosine-protein phosphatase C (Homo sapiens) (Q96SW2 whole entry, looked up): as the sequence (Q96SW2 whole entry, looked up) above

Row | Activity [1] | Activity [2] | Activity [3] | Activity [4] | Activity [5] | DC50 [5] | Activity [6] | DC50 [6] | Activity [7] | Activity [8] | Activity [9] | Activity [10] | Activity [11] | Activity [12] | Activity [13] | Activity [14] | Activity [15] | Activity [16] | Activity [17] | SMILES | inhibition in vivo at 40 mg/kg [18] | also measured
1 | 83% | 46% | 53% | < 5% | Dose-Dependent Effect | 250 nM | Dose-Dependent Effect | 40 nM | 8% | 33% | 57% | 33% | 50% | 17% | 55% | 21% | 49% | 77% | 56% | C[C@H]1[C@H](C)CC[C@]2(C(=O)NCCCCCCOCCOCCOCC(=O)Nc3cccc4c3C(=O)N(C3CCC(=O)NC3=O)C4=O)CC[C@]3(C)C(=CC[C@@H]4[C@@]5(C)CC[C@H](O)C(C)(C)[C@@H]5CC[C@]43C)[C@H]12 (stereo not given in full) | 18.3% | –
2 | 37% | 51% | 29% | 36% | – | – | – | – | – | – | – | – | – | – | – | – | – | – | – | C[C@H]1[C@H](C)CC[C@]2(C(=O)NCCCOCCOCCOCCCNc3cccc4c3C(=O)N(C3CCC(=O)NC3=O)C4=O)CC[C@]3(C)C(=CC[C@@H]4[C@@]5(C)CC[C@H](O)C(C)(C)[C@@H]5CC[C@]43C)[C@H]12 (stereo not given in full) | 15.3% | –
3 | 51% | 20% | 27% | 20% | Dose-Dependent Effect | 200 nM | Dose-Dependent Effect | 50 nM | 8% | < 5% | 40% | 51% | 58% | 46% | 58% | 43% | 43% | 71% | 48% | CC1(C)CC[C@]2(C(=O)NCCCCCCOCCOCCOCCOCCCCCC(=O)Nc3cccc4c3C(=O)N(C3CCC(=O)NC3=O)C4=O)CC[C@]3(C)C(=CC[C@@H]4[C@@]5(C)CC[C@H](O)C(C)(C)[C@@H]5CC[C@]43C)[C@@H]2C1 (stereo not given in full) | 29% | T1/2 [19]: 4 h; Activity [20]: 100%; Activity [21]: inactive; Activity [22]: inactive; Activity [23]: inactive; Activity [24]: inactive; Activity [25]: Active; Activity [26]: inactive; Activity [27]: inactive; Activity [28]: Active; Activity [29]: Active; Activity [30]: Active; Activity [31]: 8.6%; Activity [32]: 14.8%; Activity [33]: 21.8%
